# Experimental data as given in paper PMC7217877, “N-AS-triggered SPMs are direct regulators of microglia in a model of Alzheimer’s disease” (Nature Communications, 2020).
# “And” between values parts separate entries of the source, which are not always exact repeats. Identical values can stand only once.
# System: APP/PS1 mice
# Assay: lipid mediator-SPM profile of microglia isolated from treated mice (LC-MS/MS, Supplementary Table 2, Fig 4e-g)
# Assay type: in vivo, mouse
# Parameters: 15R-LXA4 level in microglia (sFig 4g) / RvE1 level in microglia (sFig 4g) / RvD1 level in microglia (sFig 4g): unit not given here
# Description: Lipid mediators metabololipidomics were performed according to previously described procedures with minor modifications[4],[30]. To confirm the biosynthesis of lipid mediators by recombinant COX2 treated with N-AS or aspirin, 10 U of human recombinant COX2 (Cayman, 60122) was incubated in the presence of 500 μM aspirin (Sigma-Aldrich, A5376) or N-AS (Sigma-Aldrich, 01912) at 37 °C for 30 min. The enzyme was filtered with a Microcon column (Millipore) to remove unreacted aspirin or N-AS and was then resuspended in 0.1 M Tris-HCl (pH 8.0). Next, 500 μM phenol (Sigma-Aldrich) and 1 μM hematin-porcine (Sigma-Aldrich) were added immediately before incubation with 100 μM AA, EPA or DHA (Cayman) at 37 °C for 2 h, respectively. The mixtures were incubated with 30 U of human 5-LOX (Cayman, 60402) containing 2 mM CaCl2 (Sigma-Aldrich), 1 mM ATP (Amresco) and 5 μM 13-HpODE (Cayman) as activators. Also, to validate the importance of residue S565 for N-AS-acetylation of COX2 and production of SPMs, 10 U of the COX2 S565A mutant was used in the above-described method. In addition, to confirm SPM generation in neurons and microglia, these cells were treated with Aβ and sonicated in neuronal and glial culture medium. […] To evaluate the relationship of N-AS and SPM production in microglia, microglia were isolated from WT, APP/PS1, and APP/PS1 treated with N-AS mice at 9 months of age. The microglia were sonicated and resuspended in microglial culture medium. The supernatants were incubated with 100 μM AA, EPA, and DHA (Cayman) at 37 °C for 2 h. A 50 μl aliquot of the mixture from each cell lysate was added to a 250 μl aliquot of 1 ng ml^−1 of 15S-LXA4-d5 (internal standard, Cayman) methanol solution. After vortexing for 10 min and centrifuging at 15,974×g for 5 min, the supernatant was subjected to the analysis of the lipid mediators using an Agilent 6470 Triple Quad LC-MS/MS system (Agilent) coupled to an Agilent 1290 HPLC system. Chromatographic separation was achieved using a Synergi Polar RP (4 μm, 2.0 mm i.d. × 150 mm, Phenomenex). Analytes were eluted with a mobile phase consisting of water: formic acid (100:0.1 v/v) (phase A) and methanol: formic acid (100:0.1 v/v) (phase B) in gradient elution mode for 23 min a flow rate of 0.2 ml min^−1. The elution gradient was as follows: from 0 to 0.1 min the content of phase A was 37% and the content of phase A was decreased to 10% and maintained for 5.5 min. The content of phase A was increased back to 37% at 6.0 min and maintained for 23 min. Quantification was carried out using MRM in negative ionization mode and collision energy of 10–15 eV. The mass transition from Q1 to Q3 is shown in Supplementary Table 2. In this study, the peak areas for all components were automatically integrated using MassHunter B 06.00.
# Adult neurons and microglia were isolated from the mice brain as previously described. In brief, the cortex of WT (1, 3, 5, or 9-months-old), APP/PS1 (1, 3, 5, or 9-months-old), APP/PS1 treated with N-AS (9-months-old) or APP/PS1 treated with aspirin (9-months-old) mice were minced in Hibernate A (Gibco)/B27 (Invitrogen) medium and dissociated using papain (Worthington) solution. After tissue trituration, cells were separated by Optiprep (Sigma-Aldrich) density gradient centrifugation. The purity of the fractionated neurons and microglia were acutely confirmed by neuronal (NeuN, mouse, 1:200, Millipore, MAB377) and microglial (Iba1, rabbit, 1:1000, Wako, 019-19941) markers and the isolated neurons and microglia were acutely analyzed for the acetylation assay and lipid mediators metabololipidomics.
# Transgenic mouse lines over-expressing the hAPP695swe (APP) and presenilin-1M146V (PS1) mutations were originated from GlaxoSmithKline (Harlow, UK)[32] and maintained as described previously. We purchased 5×FAD mice from Jackson Labs (Stock number. 34840-JAX). Because APP/PS1 and 5xFAD mice show sex differences in disease progression, we used only male mice. […]
# [1] = APP/PS1 + N-AS, individual samples
smiles,measurement,setting,value
"CCCCCCCCCCCCC/C=C/[C@@H](O)[C@H](CO)NC(C)=O [N-AS, N-((2S,3R,E)-1,3-Dihydroxyoctadec-4-en-2-yl)acetamide]",15R-LXA4 level in microglia (sFig 4g),[1],4570 and 5879.36 and 4407.58 and 3923.74 and 3772.92 and 3755.88 and 4463.12 and 4253.3
same,RvD1 level in microglia (sFig 4g),[1],122.239 and 113.373 and 105 and 174.655 and 77.0631 and 102.088 and 125.141 and 80.0045
same,RvE1 level in microglia (sFig 4g),[1],121.276 and 201.615 and 123.367 and 132.221 and 152.593 and 109.936 and 221.33
same,11-HEPE in mouse microglia,"APP/PS1/N-AS, mean±s.e.m., n=6",8016.0±190.1 pg/1*106cell
same,11-HETE in mouse microglia,"APP/PS1/N-AS, mean±s.e.m., n=6",8870.6±557.1 pg/1*106cell
same,13-HDHA in mouse microglia,"APP/PS1/N-AS, mean±s.e.m., n=6",6824.5±237.7 pg/1*106cell
same,15-HEPE in mouse microglia,"APP/PS1/N-AS, mean±s.e.m., n=6",5286.6±214.8 pg/1*106cell
same,15-HETE in mouse microglia,"APP/PS1/N-AS, mean±s.e.m., n=6",33117.1±1929.6 pg/1*106cell
same,15R-LXA4 in mouse microglia,"APP/PS1/N-AS, mean±s.e.m., n=6",4378.2±241.8 pg/1*106cell
same,17-HDHA in mouse microglia,"APP/PS1/N-AS, mean±s.e.m., n=6",86224.5±10404.3 pg/1*106cell
same,18-HEPE in mouse microglia,"APP/PS1/N-AS, mean±s.e.m., n=6",31965.9±2934.1 pg/1*106cell
same,AA in mouse microglia,"APP/PS1/N-AS, mean±s.e.m., n=6",39563.5±824.8 pg/1*106cell
same,DHA in mouse microglia,"APP/PS1/N-AS, mean±s.e.m., n=6",37384.7±1351.7 pg/1*106cell
same,EPA in mouse microglia,"APP/PS1/N-AS, mean±s.e.m., n=6",406.6±21.1 pg/1*106cell
same,LTB4 in mouse microglia,"APP/PS1/N-AS, mean±s.e.m., n=6",876.5±71.9 pg/1*106cell
same,PGE3/PGD3 in mouse microglia,"APP/PS1/N-AS, mean±s.e.m., n=6",2590.3±243.8 pg/1*106cell
same,PGH2/PGE2 in mouse microglia,"APP/PS1/N-AS, mean±s.e.m., n=6",3862.0±266.4 pg/1*106cell
same,RvD1 in mouse microglia,"APP/PS1/N-AS, mean±s.e.m., n=6",112.4±10.9 pg/1*106cell
same,RvE1 in mouse microglia,"APP/PS1/N-AS, mean±s.e.m., n=6",151.8±16.3 pg/1*106cell
same,TxB3 in mouse microglia,"APP/PS1/N-AS, mean±s.e.m., n=6",1209.9±70.0 pg/1*106cell
